≈ marks a conversion by molar mass, not a printed value.
Key:
[1] = Thermodynamic solubility in Simulated colon solution; format: physicochemical; settings: read-out: Therm_solubility
[2] = AUC (infinity) in Cynomolgus monkey at 5 mg/kg, po by LC-MS analysis; format: ADME, organism-based, Macaca fascicularis; settings: in vivo
[3] = Thermodynamic solubility in PBS at pH 7.4; format: physicochemical; settings: read-out: Therm_solubility
[4] = Fraction unbound in Beagle dog […] plasma; format: ADME, cell-free, Canis lupus familiaris
[5] = target: T1, Cytochrome P450 1A2 (Homo sapiens, UniProt P05177); test: Inhibition of CYP1A2 (unknown origin); format: ADME
T1 sequence (P05177 whole entry): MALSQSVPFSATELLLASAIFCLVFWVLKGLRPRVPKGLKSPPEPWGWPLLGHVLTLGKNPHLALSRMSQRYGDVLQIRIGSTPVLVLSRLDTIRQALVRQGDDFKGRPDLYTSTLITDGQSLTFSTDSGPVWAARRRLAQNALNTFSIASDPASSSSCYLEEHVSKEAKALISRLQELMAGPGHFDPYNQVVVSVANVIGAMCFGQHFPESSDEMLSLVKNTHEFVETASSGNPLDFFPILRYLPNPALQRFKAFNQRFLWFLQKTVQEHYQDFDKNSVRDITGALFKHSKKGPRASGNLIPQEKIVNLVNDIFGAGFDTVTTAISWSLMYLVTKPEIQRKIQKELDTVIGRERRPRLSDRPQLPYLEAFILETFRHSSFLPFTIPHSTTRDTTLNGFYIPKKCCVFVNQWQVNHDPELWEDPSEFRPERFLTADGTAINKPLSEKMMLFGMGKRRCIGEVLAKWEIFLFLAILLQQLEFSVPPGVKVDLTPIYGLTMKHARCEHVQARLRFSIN

[6] = target: Cytochrome P450 3A4 (Homo sapiens, UniProt P08684); test: Inhibition of CYP3A4 (unknown origin) by time dependent inhibition assay; format: ADME
Sequence of Cytochrome P450 3A4 (P08684 whole entry): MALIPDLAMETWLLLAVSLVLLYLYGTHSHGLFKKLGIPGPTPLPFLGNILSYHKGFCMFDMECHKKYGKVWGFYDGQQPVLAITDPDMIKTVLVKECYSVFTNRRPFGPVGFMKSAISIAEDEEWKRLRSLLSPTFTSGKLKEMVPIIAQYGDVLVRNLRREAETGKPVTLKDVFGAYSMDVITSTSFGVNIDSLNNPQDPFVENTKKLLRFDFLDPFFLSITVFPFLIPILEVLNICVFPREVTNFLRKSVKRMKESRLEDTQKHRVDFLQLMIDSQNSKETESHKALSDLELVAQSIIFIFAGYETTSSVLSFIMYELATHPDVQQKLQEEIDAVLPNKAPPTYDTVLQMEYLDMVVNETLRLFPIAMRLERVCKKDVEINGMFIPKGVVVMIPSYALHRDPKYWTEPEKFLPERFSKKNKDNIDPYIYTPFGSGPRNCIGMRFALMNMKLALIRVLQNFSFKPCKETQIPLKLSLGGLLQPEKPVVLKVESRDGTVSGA

[7] = target: 5-hydroxytryptamine receptor 2A (Homo sapiens) (UniProt P28223); test: Inhibition of 5HT2A (unknown origin); settings: concentration not given here
Sequence of 5-hydroxytryptamine receptor 2A (Homo sapiens) (P28223 whole entry): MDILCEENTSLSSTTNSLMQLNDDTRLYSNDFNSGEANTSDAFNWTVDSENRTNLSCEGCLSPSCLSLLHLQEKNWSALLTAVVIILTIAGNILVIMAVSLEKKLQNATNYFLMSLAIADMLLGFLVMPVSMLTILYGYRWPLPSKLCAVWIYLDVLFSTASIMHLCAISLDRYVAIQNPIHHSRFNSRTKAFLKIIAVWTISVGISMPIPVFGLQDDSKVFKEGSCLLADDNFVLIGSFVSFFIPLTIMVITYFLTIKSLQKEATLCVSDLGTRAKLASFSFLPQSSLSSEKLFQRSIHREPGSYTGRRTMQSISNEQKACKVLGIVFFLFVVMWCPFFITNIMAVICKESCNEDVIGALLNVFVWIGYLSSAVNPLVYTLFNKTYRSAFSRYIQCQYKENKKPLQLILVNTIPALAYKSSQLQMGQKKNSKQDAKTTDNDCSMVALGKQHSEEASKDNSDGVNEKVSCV

[8] = Lipophilicity, log D of compound in potassium phosphate buffer/octanol at pH 7.4; format: physicochemical
[9] = target: Cytochrome P450 2C9 (Homo sapiens, UniProt P11712); test: Inhibition of CYP2C9 (unknown origin) by time dependent inhibition assay; format: ADME
Sequence of Cytochrome P450 2C9 (P11712 whole entry): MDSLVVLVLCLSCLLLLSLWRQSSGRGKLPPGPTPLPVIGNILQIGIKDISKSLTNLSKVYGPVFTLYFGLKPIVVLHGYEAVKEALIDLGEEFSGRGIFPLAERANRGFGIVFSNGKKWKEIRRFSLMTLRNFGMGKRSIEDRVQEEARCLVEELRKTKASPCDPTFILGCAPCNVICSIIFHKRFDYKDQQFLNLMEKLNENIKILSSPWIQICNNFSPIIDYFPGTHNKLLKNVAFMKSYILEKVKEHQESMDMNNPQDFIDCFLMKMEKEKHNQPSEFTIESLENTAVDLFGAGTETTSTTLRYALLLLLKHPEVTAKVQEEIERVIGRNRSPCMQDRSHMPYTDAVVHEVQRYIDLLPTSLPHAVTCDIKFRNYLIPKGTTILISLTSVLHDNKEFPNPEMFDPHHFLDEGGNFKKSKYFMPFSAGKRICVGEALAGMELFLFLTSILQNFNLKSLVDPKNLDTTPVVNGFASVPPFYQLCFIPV

[10] = Metabolic stability in human hepatocytes assessed as intrinsic clearance measured per 10^6 cells; format: ADME, cell-based, Hepatocyte; settings: read-out: CLH
[11] = Thermodynamic solubility in PBS at pH 5; format: physicochemical; settings: read-out: Therm_solubility
[12] = Fraction unbound in human plasma; format: ADME, cell-free
[13] = target: T2, PXR (Homo sapiens, UniProt O75469); test: Activation of PXR (unknown origin) assessed as activation at 30 uM relative to control; format: toxicity; settings: read-out: Activity
T2 sequence (O75469 whole entry): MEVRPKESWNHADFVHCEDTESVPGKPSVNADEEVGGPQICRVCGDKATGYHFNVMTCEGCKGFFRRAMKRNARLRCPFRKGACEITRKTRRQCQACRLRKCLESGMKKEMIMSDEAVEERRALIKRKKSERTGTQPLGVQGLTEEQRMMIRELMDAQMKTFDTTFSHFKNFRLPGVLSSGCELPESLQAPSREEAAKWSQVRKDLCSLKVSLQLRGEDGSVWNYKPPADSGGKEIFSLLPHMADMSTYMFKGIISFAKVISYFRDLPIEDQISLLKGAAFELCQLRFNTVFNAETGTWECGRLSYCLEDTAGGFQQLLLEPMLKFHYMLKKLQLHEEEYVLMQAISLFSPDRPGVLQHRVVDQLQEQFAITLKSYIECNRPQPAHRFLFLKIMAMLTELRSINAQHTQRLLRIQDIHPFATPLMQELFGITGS

[14] = Apparent permeability of the compound across apical to basolateral side in MDCK; format: ADME, cell-based, Canis lupus familiaris; settings: dog
[15] = target: Cytochrome P450 2C19 (Homo sapiens, UniProt P33261); test: Inhibition of CYP2C19 (unknown origin); format: ADME
Sequence of Cytochrome P450 2C19 (P33261 whole entry): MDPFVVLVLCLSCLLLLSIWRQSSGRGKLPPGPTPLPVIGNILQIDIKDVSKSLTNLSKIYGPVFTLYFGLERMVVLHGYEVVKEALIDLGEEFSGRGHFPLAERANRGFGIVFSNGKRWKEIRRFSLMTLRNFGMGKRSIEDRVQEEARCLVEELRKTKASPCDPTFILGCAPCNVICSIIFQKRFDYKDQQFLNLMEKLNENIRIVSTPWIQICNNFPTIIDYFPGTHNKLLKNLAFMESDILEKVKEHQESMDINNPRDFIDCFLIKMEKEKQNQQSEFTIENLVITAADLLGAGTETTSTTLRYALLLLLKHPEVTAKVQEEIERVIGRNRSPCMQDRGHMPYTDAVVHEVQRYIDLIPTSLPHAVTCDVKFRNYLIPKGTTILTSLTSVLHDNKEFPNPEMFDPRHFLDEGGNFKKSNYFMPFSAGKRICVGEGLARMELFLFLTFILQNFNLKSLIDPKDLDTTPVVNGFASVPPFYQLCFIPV

[16] = test system: Mus musculus; test: In vivo inhibition of NLRP3 dependent cytokine production in po dosed LPS-challenged C57BL/6 mouse model assessed as inhibition of LPS-induced IL-18 production in blood pretreated for 1 hr followed by induced with LPS measured after 5 hrs by cytokine bead assay; format: functional, organism-based; settings: time 6.0 hrs

CC(C)(O)c1ncc([S@](N)(=O)=NC(=O)Nc2c3c(cc4c2CCC4)CCC3)s1 showed a solubility thermodynamic [1] of 31.9 µg/mL (≈ 75.9 µM), an AUC(0-inf) [2] of 331 µg·h/mL and a solubility thermodynamic [3] of 21 µg/mL (≈ 49.9 µM). The fraction unbound [4] was 0.009, the IC50 [5] was greater than 60 µM and the TDI [6] was “Not_active”. The inhibition [7] was greater than 50%, the logD [8] was 2.37 and the TDI [9] was “Not_active”. It also gave a hepatocyte CLint [10] of 8.4 µL/min/1e6 cells, a solubility thermodynamic [11] of 9.1 µg/mL (≈ 21.6 µM) and a fraction unbound [12] of 0.006. The activity at 30 µM [13] was 19%, the Papp A→B [14] was 8.2 ×10⁻⁶ cm/s and the IC50 [15] was greater than 60 µM. The inhibition [16] was “Dose-dependent-effect”.
